The subject of one assay is Candida glabrata. Briefly: Minimum inhibitory concentration in liquid medium, micro method (NCCLS M27-A). It is filed as cell-based. The settings on record: Nakaseomyces glabratus; at least 80% inhibition of growth, read after 24-48 h at 37° C., RPMI 1640; read-out: MIC Candida glabrata. Here is the method:
(§1) The assay is carried out in a final volume of 40 μl; all the reagents are prepared in a buffer: • 50 mM HEPES pH 7.5 • 0.03% triton X100 • 10 mM MgCl2 • 5% Glycerol • 1 mM DTT 10 μl of the 10-times concentrated inhibitor are added to 5 μl of enzyme (75 ng final concentration), and 5 μl of peptide (1 μM final concentration), then 2.5 μl of incubation buffer containing 40 μM ATP and 2.5 μl of radiolabeled ATP, [^33P]ATP (500 nCi), are added. After incubation for 15 minutes at ambient temperature, 10 μl of incubation buffer containing 192 nM of substrate. […] Reference method for broth dilution antifungal susceptibility testing of yeasts. Approved Standard M27-A. NCCLS, Villanova, Pa.); the minimum concentration with which a visible decrease is observed in the cloudiness of the cell growth (at least 80% compared to a control without product) is the Minimum Inhibitory Concentration (MIC) of the antifungal agent with respect to the strain tested.
(§2) RPMI 1640 medium (liquid) without L-glutamine is supplemented with L-glutamine (0.3 g/l or 10.5 ml of a solution at 200 mM) and buffered with 34.54 g/l (0.165 M) of morpholinepropanesulfonic acid (MOPS). The medium is sterilized by filtration. 100 μl of RPMI medium are distributed into each well of a 96-well plate. The appropriate volume. of the antifungal solution is distributed in the first column of the microplate and supplemented with 200 μl of medium. Doubling dilutions are made so as to establish a range of 11 concentrations in each line of the microplate. The 12th well of each row will serve as a growth control. The cell suspension is prepared from a culture (liquid or agar) or from a frozen vial, and is diluted in RPMI medium so as to obtain a cell suspension at 5×10^3−2×10^4 cells/ml. 100 μl of the cell suspension are distributed in the microplate. For all species of Candida, the MIC is read after 24-48 h, and for Cryptococcus and Aspergillus after 48-72 h, of incubation at 37° C. in a normal atmosphere. The MIC is read by visual reading, determining the well which contains the lowest dose of antifungal agent which causes at least 80% inhibition of the growth of the fungus.

Another assay has as its system Candida albicans. Described as above. The conditions noted are these: at least 80% inhibition of growth, read after 24-48 h at 37° C., RPMI 1640, read-out: MIC Candida albicans. It is filed as cell-based. How it is done:
as §1, §2

In another assay the target is CaCiv1 (Candida albicans, UniProt A0A1D8PH53). The experiment in a line: Assay for inhibition of CIV-CDK (CIV1) activity. It is filed as biochemical. The text has this: 1) Assay for Inhibition of CIV-CDK (CIV1) Activity
a) Preparation of the Reagents

A further assay deals with JNK3 kinase (Homo sapiens, UniProt P53779). Briefly: Assay for inhibition of JNK3 activity. It is filed as biochemical. The settings on record: fluorescence polarization, ATP 6 μM; read-out: IC50s expressed as micromolar. How it is done: The inhibition of the kinase activity is determined by fluorescence polarization, the JNK3 kinase phosphorylates a peptide detected by adding an anti-phosphopeptide antibody coupled to a fluorescent label.
The assay is carried out in a final volume of 30 μl; all the reagents are prepared in a buffer: • 50 mM HEPES pH 7.5 • 0.03% triton X100 • 10 mM MgCl2 • 5% Glycerol • 1 mM DTT 10 μl of the 10-times concentrated inhibitor are added to 5 μl of enzyme (40 ng final concentration), and 5 μl of incubation buffer containing 100 ng of substrate and 10 μl of ATP (6 μM final concentration) are added.

The target of the next assay is T1, SRC kinase (Homo sapiens, UniProt P12931).
T1 construct: purchased Upstate Biotechnology 14-117
Briefly: Assay for inhibition of SRC kinase activity. The assay is classed as biochemical. The conditions noted are these: fluorescence polarization, read-out: percentage inhibition at 20 μM. How it is done: 2) Assay for Inhibition of SRC Kinase Activity
The inhibition is determined by fluorescence polarization, the […] kinase phosphorylates a peptide detected by adding an anti-phosphopeptide antibody coupled to a fluorescent label.
The assay is carried out in a final volume of 50 μl; all the reagents are prepared in a buffer: • 25 mM HEPES/NaOH pH 7.6 • 5 mM MgCl2 • 2 mM MnCl2 • 50 μM Na2VO4 5 μl of the 10-times concentrated inhibitor are added to 25 μl of enzyme (12 U/ml final concentration), (Upstate Biotechnology ref 14-117). After incubation for 5 minutes at ambient temperature, 10 μl of PolyGluTyr 4/1 (150 ng/ml final concentration) and 10 μl of ATP (5 μM final concentration) are added. The detection is carried out after incubation for 20 minutes at ambient temperature. • Results obtained expressed as percentage inhibition at 20 μM • Example 8 98% • Example 15 99% • Example 20 99% • Example 24 99% • Example 27 95% • Example 30 99% • Example 32 100% • Example 38 95% 3) Assay for Inhibition of CDK2 Activity

In assay [1] the target is Cyclin Dependent kinase 2 (CDK2) (Homo sapiens, UniProt P24941). The experiment in a line: Assay for inhibition of CDK2 activity. It is filed as biochemical. The settings on record: [33P]ATP, read-out: percentage inhibition at 20 μM. How it is done:
The inhibition of the kinase activity of Cyclin Dependent kinase 2 (CDK2) is determined by measuring the phosphorylation of its substrate peptide.
The assay is carried out in a final volume of 50 μl.
The incubation buffer as follows:
• 50 mM Hepes/NaOH pH 7.5 • 10 mM MgCl2 • 1 mM DTT 5 μl of the 10-times concentrated inhibitor are added to 25 μl of incubation buffer containing 0.8 U/μL final concentration of the enzyme; 10 μL of incubation buffer containing 0.0025 mg/ml of peptide substrate are then added and, finally, 10 μL of incubation buffer containing 2 mM ATP and radiolabeled ATP, [^33P]ATP (0.25 μCi), are added. The reaction is stopped after incubation for 10 minutes at 37° C. • Results obtained expressed as percentage inhibition at 20 μM • Example 2 97% • Example 27 97% • Example 30 99% 4) Assay for Inhibition of CDK1 Activity

A further assay relates to Abl kinase. Briefly: Assay for inhibition of Abl activity. It is filed as biochemical. The conditions noted are these: fluorescence polarization. Here is the method: The inhibition of the kinase activity is determined by fluorescence polarization, the Abl kinase phosphorylates a peptide detected by adding an anti-phosphopeptide antibody coupled to a fluorescent label.
The assay is carried out in a final volume of 50 μl; all the reagents are prepared in a buffer: • 20 mM Hepes/NaOH pH 7.5 • 5 mM MgCl2 • 100 μM Na2VO4 • 1 mM DTT • 100 μM EDTA/NaOH • 0.01% Brij35 5 μl of the 10-times concentrated inhibitor are added to 25 μl of enzyme (1000 U/ml final concentration), (Calbiochem ref 102555). After incubation for 5 minutes at ambient temperature, 10 μL of PolyGT (400 ng/ml final concentration) and 10 μL of ATP (5 μM final concentration) are added. The detection is carried out after incubation for 15 minutes at 30° C. • Results obtained expressed as percentage inhibition at 20 μM • Example 24 100% • Example 2 100% • Example 32 100% 6) Assay for Inhibition of ZAP Kinase Activity

Where [2] appears, read: CaCiv1 with Cdk2 substrate, [33P]ATP, 30 min ambient temperature, read-out: IC50 as micromolar.

The values below come from US7476670B2, “Purine derivatives, method for preparing, pharmaceutical compositions and novel use” (Aventis Pharma S.A., priority 2003, dated 2009).

Structures are written as SMILES. Values after ≈ are worked out from the molar mass of the structure shown. Counter-ions that a name gives are not always drawn. Like-named read-outs stand apart in the source and are kept apart here.

Chain of JNK3 kinase (P53779 whole entry): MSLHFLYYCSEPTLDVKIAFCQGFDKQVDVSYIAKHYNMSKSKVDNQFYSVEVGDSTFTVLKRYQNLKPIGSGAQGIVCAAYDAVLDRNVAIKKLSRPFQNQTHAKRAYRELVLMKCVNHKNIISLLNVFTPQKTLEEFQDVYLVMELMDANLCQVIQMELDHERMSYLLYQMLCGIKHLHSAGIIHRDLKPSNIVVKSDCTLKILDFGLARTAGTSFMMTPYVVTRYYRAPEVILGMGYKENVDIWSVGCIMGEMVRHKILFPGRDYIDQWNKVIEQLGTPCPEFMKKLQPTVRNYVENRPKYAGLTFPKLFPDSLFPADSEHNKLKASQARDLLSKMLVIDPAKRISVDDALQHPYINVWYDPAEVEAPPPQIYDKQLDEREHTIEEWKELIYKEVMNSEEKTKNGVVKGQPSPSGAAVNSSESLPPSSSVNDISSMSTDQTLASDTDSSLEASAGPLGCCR
Chain of CaCiv1 (A0A1D8PH53 entry or part of it): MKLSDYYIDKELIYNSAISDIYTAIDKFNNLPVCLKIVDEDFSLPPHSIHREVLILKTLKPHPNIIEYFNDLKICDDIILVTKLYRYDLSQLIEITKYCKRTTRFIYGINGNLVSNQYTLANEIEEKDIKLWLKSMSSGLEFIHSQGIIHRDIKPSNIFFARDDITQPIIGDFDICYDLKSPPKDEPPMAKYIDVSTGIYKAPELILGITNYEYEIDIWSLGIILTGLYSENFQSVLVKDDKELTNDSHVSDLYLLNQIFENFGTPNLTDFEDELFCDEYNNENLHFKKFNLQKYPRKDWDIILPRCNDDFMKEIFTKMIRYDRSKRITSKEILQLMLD
T1 sequence (P12931 whole entry): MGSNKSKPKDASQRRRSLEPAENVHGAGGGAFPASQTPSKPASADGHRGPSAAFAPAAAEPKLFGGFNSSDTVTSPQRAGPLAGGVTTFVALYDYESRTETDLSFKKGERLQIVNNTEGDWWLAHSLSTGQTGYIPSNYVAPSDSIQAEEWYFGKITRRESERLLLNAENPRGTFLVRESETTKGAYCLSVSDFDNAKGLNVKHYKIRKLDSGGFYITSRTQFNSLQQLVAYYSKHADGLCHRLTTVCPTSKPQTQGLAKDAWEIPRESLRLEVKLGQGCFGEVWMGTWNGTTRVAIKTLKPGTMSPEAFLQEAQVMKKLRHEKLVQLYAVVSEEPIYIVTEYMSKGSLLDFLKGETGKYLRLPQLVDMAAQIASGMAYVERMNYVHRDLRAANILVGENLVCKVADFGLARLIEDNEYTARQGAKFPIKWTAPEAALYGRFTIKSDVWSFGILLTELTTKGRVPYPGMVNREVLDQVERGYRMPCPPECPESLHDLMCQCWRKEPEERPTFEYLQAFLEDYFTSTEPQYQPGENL

In the case of `Cc1cc2ncn(-c3nc(N[C@H]4CC[C@H](N)CC4)nc4[nH]cnc34)c2cc1C` [Example 5, Trans-N-[6-(5,6-dimethyl-1H-benzimidazol-1-yl)-9H-purin-2-yl]-1,4-cyclohexanediamine], the MIC in the assay on Candida glabrata and in the assay with Candida albicans was 64 µg/mL (≈ 170 µM) in each case. In addition, the IC50 on CaCiv1 (setting [2]) is 1.1 µM.
For the compound `N[C@H]1CC[C@H](Nc2nc(N3CCc4cc(Cl)ccc43)c3nc[nH]c3n2)CC1` [Example 7, Trans-N-[6-(5-chloro-2,3-dihydro-1H-indol-1-yl)-9H-purin-2-yl]-1,4-cyclohexanediamine], the IC50 at CaCiv1 (setting [2]) was determined as 3.6 µM.
With `COc1ccc2c(c1)ncn2-c1nc(N[C@H]2CC[C@H](N)CC2)nc2[nH]cnc12` [Example 15, Trans-N-[6-(5-methoxy-1H-benzimidazol-1-yl)-9H-purin-2-yl]-1,4-cyclohexanediamine dihydrochloride], the IC50 was found to be 0.5 µM at JNK3 kinase and 0.3 µM on CaCiv1. The inhibition at 20 µM at SRC kinase is 99%.
In the case of `N[C@H]1CC[C@H](Nc2nc(-n3ccc4ccccc43)c3nc[nH]c3n2)CC1` [Example 16, Trans-N-[6-(1H-indol-1-yl)-9H-purin-2-yl]-1,4-cyclohexanediamine dihydrochloride], at CaCiv1, the IC50 is 0.31 µM.
`CC[C@@H](CO)Nc1nc(-n2cnc3ccccc32)c2nc[nH]c2n1` [Example 27, (2S)-2-[[6-(1H-benzimidazol-1-yl)-9H-purin-2-yl]amino]-1-butanol]: the IC50 on JNK3 kinase was determined as 0.29 µM; at CaCiv1 (setting [2]), 4.3 µM. Further, the inhibition at 20 µM amounted to 95% on SRC kinase and 97% in assay [1].
Consider `N[C@H]1CC[C@H](Nc2nc(N3CCc4cc(Br)ccc43)c3nc[nH]c3n2)CC1` [Example 32, Trans-N-[6-(5-bromo-2,3-dihydro-1H-indol-1-yl)-9H-purin-2-yl]-1,4-cyclohexanediamine], for which the MIC in the assay with Candida glabrata and in the assay with Candida albicans was 64 µg/mL (≈ 149 µM) throughout. Also, the inhibition at 20 µM at SRC kinase came out at 100%. Also, the “percentage inhibition at 20 μM” value in the assay with Abl kinase is 100%.
Take `N[C@H]1CC[C@H](Nc2nc(N3CCc4cc(F)ccc43)c3nc[nH]c3n2)CC1` [Example 38, Trans-N-[6-(5-fluoro-2,3-dihydro-1H-indol-1-yl)-9H-purin-2-yl]-1,4-cyclohexanediamine dihydrochloride]: on JNK3 kinase, the IC50 turned out to be 0.42 µM. Moreover, the inhibition at 20 µM on SRC kinase was 95%.
On to `CC(=O)c1ccc2c(c1)CCN2c1nc(N[C@H]2CC[C@H](N)CC2)nc2[nH]cnc12` [Example 39, Trans-1-[1-[2-[(4-aminocyclohexyl)amino]-9H-purin-6-yl]-2,3-dihydro-1H-indol-5-yl]ethanone], for which, at CaCiv1 (setting [2]), the IC50 is 3.6 µM.
As to `N[C@H]1CC[C@H](Nc2nc(N3CCc4ccc(C(F)(F)F)cc43)c3nc[nH]c3n2)CC1` [Example 40, Trans-N-[6-[2,3-dihydro-6-(trifluoro-methyl)-1H-indol-1-yl)-9H-purin-2-yl]-1,4-cyclohexanediamine], the IC50 at CaCiv1 (setting [2]) was 0.2 µM.
As for `N[C@H]1CC[C@H](Nc2nc(N3CCc4cc(NC(=O)Cc5cccs5)ccc43)c3nc[nH]c3n2)CC1` [Example 41, Trans-N-[1-[2-[(4-aminocyclohexyl)amino]-9H-purin-6-yl]-2,3-dihydro-1H-indol-5-yl]-2-thiopheneacetamide], the IC50 on CaCiv1 (setting [2]) was 0.95 µM.
In the case of `N[C@H]1CC[C@H](Nc2nc(N3CCc4cc(NC(=O)CCc5ccccc5)ccc43)c3nc[nH]c3n2)CC1` [Example 42, Trans-N-[1-[2-[(4-aminocyclohexyl)amino]-9H-purin-6-yl]-2,3-dihydro-1H-indol-5-yl]benzenepropanamide], the IC50 at CaCiv1 (setting [2]) is 3.3 µM.
As for `N[C@H]1CC[C@H](Nc2nc(N3CCc4cc(NC(=O)Nc5ccc(Cl)c(Cl)c5)ccc43)c3nc[nH]c3n2)CC1` [Example 43, Trans-N-[1-[2-[(4-aminocyclohexyl)amino]-9H-purin-6-yl]-2,3-dihydro-1H-indol-5-yl]-N′-(3,4-dichlorophenyl)urea], at CaCiv1 (setting [2]), the IC50 stood at 4.4 µM.
In the case of `N[C@H]1CC[C@H](Nc2nc(N3CCc4ccc([N+](=O)[O-])cc43)c3nc[nH]c3n2)CC1` [Example 44, Trans-N-[6-(6-nitro-2,3-dihydro-1H-indol-1-yl)-9H-purin-2-yl]-1,4-cyclohexanediamine], the IC50 on CaCiv1 (setting [2]) was determined as 0.02 µM.
For the compound `CN(C)c1ccc(NC(=O)Nc2ccc3c(c2)CCN3c2nc(N[C@H]3CC[C@H](N)CC3)nc3[nH]cnc23)cc1` [Example 45, Trans-N-[1-[2-[(4-aminocyclohexyl)amino]-9H-purin-6-yl]-2,3-dihydro-1H-indol-5-yl]-N′-[4-(dimethylamino)phenyl]urea], the IC50 on CaCiv1 (setting [2]) stood at 1.3 µM.
In the case of `Nc1ccc2c(c1)CCN2c1nc(N[C@H]2CC[C@H](N)CC2)nc2[nH]cnc12` [Example 46, Trans-N-[6-(5-amino-2,3-dihydro-1H-indol-1-yl)-9H-purin-2-yl]-1,4-cyclohexanediamine], the IC50 on CaCiv1 (setting [2]) was determined as 2 µM.
